Data as given in US20110105515A1, “TARGETING THE ONCOPROTEIN NUCLEOPHOSMIN” (President and Fellows of Harvard College, priority 2007, published 2011).

Tests used:
LOX IMVI = LOX IMVI (Melanoma), 48 hours, SRB
OVCAR-4 = OVCAR-4 (Ovarian Cancer), 48 hours, SRB; for CC50: read-out: LC50
PC-3 = PC-3 (Prostate Cancer), 48 hours, SRB; for CC50: read-out: LC50
HOP-62 = HOP-62 (Non-Small Cell Lung Cancer), 48 hours, SRB; for CC50: read-out: LC50
SNB-75 = SNB-75 (CNS Cancer), 48 hours, SRB; for CC50: read-out: LC50
HCC-2998 = HCC-2998 (Colon Cancer), 48 hours, SRB; for CC50: read-out: LC50
HS578T = HS578T (Breast Cancer), 48 hours, SRB; for CC50: read-out: LC50
SF-268 = SF-268 (CNS Cancer), 48 hours, SRB; for CC50: read-out: LC50
UO-31 = UO-31 (Renal Cancer), 48 hours, SRB; for CC50: read-out: LC50
SR = SR (Leukemia), 48 hours, SRB; for CC50: read-out: LC50
SN12C = SN12C (Renal Cancer), 48 hours, SRB; for CC50: read-out: LC50
SK-MEL-28 = SK-MEL-28 (Melanoma), 48 hours, SRB
NCI-H23 = NCI-H23 (Non-Small Cell Lung Cancer), 48 hours, SRB; for CC50: read-out: LC50
SK-MEL-5 = SK-MEL-5 (Melanoma), 48 hours, SRB; for CC50: read-out: LC50
RPMI-8226 = RPMI-8226 (Leukemia), 48 hours, SRB; for CC50: read-out: LC50
T-47D = T-47D (Breast Cancer), 48 hours, SRB; for CC50: read-out: LC50
OVCAR-5 = OVCAR-5 (Ovarian Cancer), 48 hours, SRB; for CC50: read-out: LC50
K-562 = K-562 (Leukemia), 48 hours, SRB
SF-295 = SF-295 (CNS Cancer), 48 hours, SRB; for CC50: read-out: LC50
DU-145 = DU-145 (Prostate Cancer), 48 hours, SRB; for CC50: read-out: LC50
MALME-3M = MALME-3M (Melanoma), 48 hours, SRB
MDA-MB-435 = MDA-MB-435 (Breast Cancer), 48 hours, SRB; for CC50: read-out: LC50
ACHN = ACHN (Renal Cancer), 48 hours, SRB; for CC50: read-out: LC50
SW-620 = SW-620 (Colon Cancer), 48 hours, SRB
CCRF-CEM = CCRF-CEM (Leukemia), 48 hours, SRB; for CC50: read-out: LC50
TK-10 = TK-10 (Renal Cancer), 48 hours, SRB; for CC50: read-out: LC50

## CC1(C)C=Cc2c(ccc3c4c(n(O)c23)C(C)(C)C2CC35CCCN3C(=O)C2(NC5=O)C4SCC(NC(=O)CCC(N)C(=O)O)C(=O)NCC(=O)O)O1 (centres unmarked) [Glutathione Adduct]
LOX IMVI
  GI50: 806 nM
  TGI: 1560 nM
OVCAR-4
  GI50: 742 nM
  TGI: 2490 nM
  CC50: 10100 nM
PC-3
  GI50: 906 nM
  TGI: 2590 nM
  CC50: 11600 nM
HOP-62
  GI50: 6670 nM
  TGI: 1380 nM
  CC50: 28600 nM
SNB-75
  GI50: 896 nM
  TGI: 2450 nM
  CC50: 8470 nM
HCC-2998
  GI50: 759 nM
  TGI: 1510 nM
  CC50: 3020 nM
HS578T
  GI50: 1110 nM
  TGI: 3790 nM
  CC50: > 50000 nM
SF-268
  GI50: 1130 nM
  TGI: 2880 nM
  CC50: 10900 nM
UO-31
  GI50: 779 nM
  TGI: 4070 nM
  CC50: 15000 nM
SR
  GI50: 228 nM
  TGI: 1280 nM
  CC50: 16700 nM
SN12C
  GI50: 1510 nM
  TGI: 5640 nM
  CC50: 17800 nM
SK-MEL-28
  GI50: 985 nM
  TGI: 1950 nM
SK-MEL-28; read-out: LC50
  CC50: 3870 nM
NCI-H23
  GI50: 1090 nM
  TGI: 3070 nM
  CC50: 14900 nM
SK-MEL-5
  GI50: 826 nM
  TGI: 1860 nM
  CC50: 4170 nM
RPMI-8226
  GI50: 159 nM
  TGI: 1140 nM
  CC50: > 50000 nM
T-47D
  GI50: 319 nM
  TGI: 2470 nM
  CC50: 46000 nM
OVCAR-5
  GI50: 971 nM
  TGI: 3030 nM
  CC50: 12000 nM
K-562
  GI50: 1010 nM
  TGI: 4660 nM
K-562; read-out: LC50
  CC50: > 50000 nM
SF-295
  GI50: 1450 nM
  TGI: 6580 nM
  CC50: 24400 nM
DU-145
  GI50: 1160 nM
  TGI: 2650 nM
  CC50: 7880 nM
MALME-3M
  GI50: 419 nM
  TGI: 3100 nM
MALME-3M; read-out: LC50
  CC50: 25100 nM
MDA-MB-435
  GI50: 1100 nM
  TGI: 5200 nM
  CC50: 22000 nM
ACHN
  GI50: 961 nM
  TGI: 3220 nM
  CC50: 12300 nM
SW-620
  GI50: 713 nM
  TGI: 1500 nM
SW-620; read-out: LC50
  CC50: 3810 nM
CCRF-CEM
  GI50: 672 nM
  TGI: 2030 nM
  CC50: 35000 nM
TK-10
  GI50: 1090 nM
  TGI: 5460 nM
  CC50: 17400 nM

## CN(C)c1cccc2c(S(=O)(=O)NCCCCCCCCCCOc3ccc4c(c3)[N+]([O-])=C3C4=C[C@@]45NC(=O)C6(CCCN6C4=O)CC5C3(C)C)cccc12 (some centres unmarked) [Dansyl Analogue]
LOX IMVI
  GI50: 166 nM
  TGI: 310 nM
LOX IMVI; read-out: LC50
  CC50: 579 nM
OVCAR-4
  GI50: 348 nM
  TGI: 7420 nM
  CC50: 32200 nM
PC-3
  GI50: 334 nM
  TGI: 1820 nM
  CC50: 41700 nM
HOP-62
  GI50: 2380 nM
  TGI: 4640 nM
  CC50: 9020 nM
SNB-75
  GI50: 273 nM
  TGI: 930 nM
  CC50: 3430 nM
HCC-2998
  GI50: 946 nM
  TGI: 2320 nM
  CC50: 5490 nM
HS578T
  GI50: 355 nM
  TGI: 36900 nM
  CC50: > 100000 nM
SF-268
  GI50: 282 nM
  TGI: 853 nM
  CC50: 3690 nM
UO-31
  GI50: 480 nM
  TGI: 2080 nM
  CC50: 6480 nM
SR
  GI50: 371 nM
  TGI: 1940 nM
  CC50: 23700 nM
SN12C
  GI50: 401 nM
  TGI: 6810 nM
  CC50: 31700 nM
SK-MEL-28
  GI50: 282 nM
  TGI: 678 nM
NCI-H23
  GI50: 581 nM
  TGI: 2480 nM
  CC50: 9050 nM
SK-MEL-5
  GI50: 373 nM
  TGI: 1470 nM
  CC50: 3840 nM
RPMI-8226
  GI50: 282 nM
  TGI: >100000 nM
  CC50: > 100000 nM
T-47D
  GI50: 152 nM
  TGI: 572 nM
  CC50: 3140 nM
OVCAR-5
  GI50: 1460 nM
  TGI: 2960 nM
  CC50: 5970 nM
K-562
  TGI: 64400 nM
SF-295
  GI50: 1730 nM
  TGI: 4630 nM
  CC50: 49400 nM
DU-145
  GI50: 271 nM
  TGI: 706 nM
  CC50: 2450 nM
MALME-3M
  GI50: 426 nM
  TGI: 2110 nM
MDA-MB-435
  GI50: 382 nM
  TGI: 1920 nM
  CC50: 23100 nM
ACHN
  GI50: 736 nM
  TGI: 2700 nM
  CC50: 8560 nM
SW-620
  GI50: 266 nM
CCRF-CEM
  GI50: 246 nM
  TGI: >100000 nM
  CC50: > 100000 nM
TK-10
  GI50: 716 nM
  TGI: 2810 nM
  CC50: 9660 nM
